Reference: ChEMBL document CHEMBL4725290, “Synthesis of 2-guanidinyl pyridines and their trypsin inhibition and docking” (Bioorg Med Chem, 2020)

Target: not listed separately
Assay: Competitive inhibition of bovine pancreas trypsin assessed as release of para-nitroaniline using L-BAPA as substrate in presence of 4-nitrophenyl 4-guanidinobenzoate hydrochloride as inhibitor at pH 7.2 at 25 degC
Parameters: species or system Bos taurus
Settings: not given
With `N=C(N)Nc1ccc(Cl)cn1` the Ki was 34.7 µM.
Molecule `N=C(N)Nc1ccc(Cl)cc1` has a Ki of 127 µM.
In the case of `N=C(N)Nc1cccnc1`, the Ki is reported as 950 µM.
`N=C(N)Nc1ccc(F)cn1` gave a Ki of 144 µM.
Work on `N=C(N)Nc1ccccn1` yielded a Ki of 83.2 µM.
With `CON(C)C(=O)c1ccc(NC(=N)N)nc1` the Ki was 2550 µM.
Molecule `N=C(N)Nc1ccc(-c2ccccc2)cn1` has a Ki of 955 µM.
`COC(=O)c1ccc(NC(=N)N)nc1.O=C(O)C(F)(F)F` gave a Ki of 1080 µM.
With `Cc1cccnc1NC(=N)N` the Ki was 14 µM.
For `N=C(N)Nc1ccc(Br)cn1`, the Ki was 20.5 µM.
Molecule `CC(=O)c1ccc(NC(=N)N)nc1` has a Ki of 5040 µM.
In the case of `CN(C)/C=N/c1ccc(Br)cn1`, the Ki is reported as over 17200 µM.
Work on `N=C(N)Nc1ccc(C(F)(F)F)cn1` yielded a Ki of 218 µM.
For `Cc1ccnc(NC(=N)N)c1`, the Ki was 119 µM.
`Cc1cccc(NC(=N)N)n1` gave a Ki of 91.3 µM.
With `Cc1ccc(NC(=N)N)nc1` the Ki was 104 µM.
Work on `N=C(N)Nc1ccc(C=O)cn1` yielded a Ki of 289 µM.
Molecule `N=C(N)Nc1ccncn1` has a Ki of 514 µM.
For `N=C(N)Nc1ccc(I)cn1`, the Ki was 15.1 µM.

Test system: not listed separately
Assay: Stability of the compound assessed as bovine trypsin-mediated hydrolysis for 6 days by NMR spectroscopy
Type: ADME, Bos taurus
Settings: cattle, isolated protein, 144 h; time 6 day
For `COC(=O)c1ccc(NC(=N)N)nc1.O=C(O)C(F)(F)F`, the Stabilty was “Stable”.

Target: not listed separately
Assay: Competitive inhibition of bovine trypsin using Z-Arg-SBzl as substrate at pH 7.5 at 25 degC
Parameters: species or system Bos taurus
Settings: not given
`N=C(N)c1ccccc1` [BENZAMIDINE] gave a Ki of 35 µM.

Species on record: Bos taurus
Assay: Competitive inhibition of bovine pancreas trypsin assessed as release of para-nitroaniline using L-BAPA as substrate at pH 7.2 in absence of inhibitor at 25 degC
Settings: not given
In the case of `N=C(N)Nc1ccc(Cl)cn1`, the V0 is reported as 8.26 10^-8M/s.
With `N=C(N)Nc1ccc(F)cn1` the V0 was 3.79 10^-8M/s.
With `N=C(N)Nc1ccccn1` the V0 was 8.09 10^-8M/s.
With `N=C(N)Nc1ccc(Br)cn1` the V0 was 3.85 10^-8M/s.
With `N=C(N)Nc1ccc(C(F)(F)F)cn1` the V0 was 10.3 10^-8M/s.
In the case of `N=C(N)Nc1ccc(I)cn1`, the V0 is reported as 4.4 10^-8M/s.
